Measurements taken from article PMC5404848 (Cell Chemical Biology, 2017).

How the values were obtained:
HCT116 cells [1] = assay: Membrane integrity LDH release assay; type: cell-based, Human; conditions: 48 hr of treatment
Experimental: To test the biological activity of the compounds, we performed MTT (3-(4,5-dimethylthiazol-2-yl)-2,5-diphenyltetrazolium bromide) and lactate dehydrogenase (LDH) release assays. In addition, the importance of p53 status was evaluated by the use of two variants of HCT116 cells: HCT116 p53^wt (wild-type) and HCT116 p53^−/−. To track not only the toxic (lethal) but also growth-inhibitory (GI) effect in the MTT assay, we treated the cells for 6 days. In the experiment the toxic effect, but not the GI effect, was expected to be accompanied by LDH release.
Membrane integrity LDH release assay was performed using CytoTox-ONE kit (Promega). The cells were seeded on 96-well black plates, and after 24 hours treated with the compounds or DMSO for 2 days. The assay was performed according to the manufacturer’s instructions. For each well the data was calculated as a % of total LDH content, measured for the lysed cells, treated in the same manner as cells on that well.

HCT116 p53^wt cells [2] = assay: Caspase 3/7 activity (Caspase-Glo 3/7); type: cell-based, Human
Experimental: To evaluate whether the observed effects are accompanied by the induction of apoptosis, we examined the activation of caspases 3 and 7 in HCT116 p53^wt cells.
The cells were plated on the 96-well white, flat bottom plates (Falcon) and treated with DMSO, LCAHA or Staurosporine. For the detection of caspase activity Caspase-Glo 3/7 Assay System was used (Promega) according to the manufacturer’s instructions.

HCT116 p53^wt cells [3] = type: cell-based, Human
Text: […]. To investigate this effect, we analyzed the cell-cycle distribution. Cells treated for 48 hr with LCAHA or DMSO were pulse-labeled with BrdU for 1 hr and stained with fluorescein isothiocyanate (FITC)-anti-bromodeoxyuridine (BrdU) antibody and propidium iodide (PI). […].
[…]. To track the progression through the S phase and G0/G1 arrest precisely, we analyzed FITC-positive and -negative cells separately for cell-cycle distribution using ModFit LT software.
[…]. After that, the cells were either harvested by trypsinization and fixed with 96% ethanol, or cultured for additional 3-9 hours in the absence of BrdU before harvesting and fixation. The cells were stained with PI and FITC-conjugated anti-BrdU antibody (BioLegend, cat. 364104) and analysed with Fortessa flow cytometer (Becton Dickinson). Cell cycle distribution was analysed using ModFit LT Software (Verity Software House).
Figure S2. PI-BrdU pulse-chase labeling of HCT116 cells for the evaluation of cell cycle progression following LCAHA treatment. […].
HCT116 p53wt cells were seeded on culture dishes in growth medium containing 3.3% FBS and treated […]
the end of the treatment half of the medium was collected in a falcon tube, and the other half was supplemented with BrdU in a final concentration of 10 µM. After one hour, the medium containing BrdU was removed and the cells were trypsinized and fixed (time “t0”) or cultured in the medium previously collected in the falcon tube for additional 3, 6 or 9 hours. After that time the cells were trypsinized, fixed and stained with FITC conjugated anti-BrdU antibody and propidium iodide (PI). The cells were analyzed by flow cytometry using BD Fortessa cell analyzer and BD […] software. All cells, as well as FITC positive (BrdU+, top panel) and FITC negative (BrdU-, bottom panel) counts were exported to separate files and analyzed separately using ModFit LT Software. The graphs show mean ± SD values from three independent experiments. The statistical significance was evaluated using one-way ANOVA with Tukey’s […]

MCF-7 cells = assay: Western blot analysis of cyclin D1 expression; type: cell-based, Human; conditions: 10 μM, 48 hr
U-2 OS cells = assay: Western blot analysis of cyclin D1 expression; type: cell-based, Human; conditions: 10 μM, 48 hr
[4] = test system: CCND1 mRNA in HCT116, MCF-7, and U-2 OS; assay: RT-PCR of CCND1 mRNA; type: cell-based, Human; conditions: 10 μM, 48 hr
Experimental: To characterize the mechanism of cyclin D1 downregulation by LCAHA, we first examined the level of CCND1 mRNA. […] In SAOS-2 cells CCND1 mRNA was not detected.
Total RNA was isolated with Renozol (GenoPlast Biochemicals) according to the manufacturer’s instructions. Five hundred ng of RNA was reverse-transcribed using M-MLV RT (Promega) and oligo-dT primer. RT PCR was performed with the use of GoTaq qPCR Master Mix (Promega) and the following primers: for CCND1 mRNA: […] and […], for GAPDH mRNA: […] and […] ([Yin et al., 2001]). The hybridization step was carried out at 60°C and the program involved 30 amplification cycles. The products were separated on 1% agarose gel and visualized with ChemiDoc MP system.

HCT116 p53^wt cells [5] = assay: Cell numbers from pictures of Hoechst-stained cells; type: cell-based, Human; conditions: 3 days, DMSO 6452
Experimental: The cells were plated on the 96-well white, flat bottom plates (Falcon) and treated with DMSO, LCAHA or Staurosporine. For the detection of caspase activity Caspase-Glo 3/7 Assay System was used (Promega) according to the manufacturer’s instructions. Due to the observed growth-inhibitory properties of LCAHA the results were normalized to cell numbers, calculated from the pictures of Hoechst-stained cells seeded on transparent culture plates and treated identically as the cells seeded for caspase activity assay (mean nuclei number per picture was 6452 for 3 days treatment with DMSO, and 3957, 4229 and 2783 for the cells treated with increasing concentrations of LCAHA).

HCT116 p53^wt cells [6] = assay: Western blot analysis of protein expression; type: cell-based, Human
HCT116 cells [7] = assay: Western blot analysis of USP2a targets Aurora A and cyclin A1; conditions: 5 μM and 20 μM, 48 hr
Experimental: Total cell lysates were prepared with RIPA buffer (Sigma Aldrich) containing protease inhibitor cocktail (Sigma Aldrich) alone or with phosphatase inhibitor cocktail (Roche). Following the electrophoresis and transfer, PVDF membranes were blocked with 4% BSA (BioShop) in TBS-N buffer and incubated with primary antibody at 4°C overnight. After four washes, the addition of secondary antibodies and additional four washes, the detection was performed using Clarity Western ECL Substrate (BioRad) and ChemiDoc MP system (BioRad). The densitometry analysis was performed with Image Lab software (BioRad). All measured values, besides cyclin D1 stability experiment, were normalized to GAPDH or α-tubulin expression level.

[8] = 5 μM, 48 hr, nine hours after BrdU pulse

SMILES: C[C@H](CCC(=O)NO)[C@H]1CC[C@H]2[C@@H]3CC[C@@H]4C[C@H](O)CC[C@]4(C)[C@H]3CC[C@]12C [LCAHA, N-(hydroxy)-3-hydroxylithocholanamide]
- LDH release (HCT116 cells [1]): observed only at the concentrations corresponding to the high-concentration toxic effect
- caspase 3 and 7 activity (HCT116 p53^wt cells [2]; 10 μM): increase of caspase activity significant
- caspase 3 and 7 activity (HCT116 p53^wt cells [2]; 1 or 5 μM, 48 or 72 hr): weak and non-significant increase
- BrdU incorporation (rate of DNA synthesis) (HCT116 p53^wt cells [3]): dose-dependent decrease in the rate of DNA synthesis
- BrdU^− cells that left G0/G1 phase and entered the S phase (HCT116 p53^wt cells [3]; [8]): 20%
- proportion of BrdU^+ cells in G0/G1 phase (HCT116 p53^wt cells [3]; [8]): 24%
- proportion of BrdU^+ cells remaining in the S phase (HCT116 p53^wt cells [3]; [8]): 56%
- cell-cycle progression (HCT116 p53^wt cells [3]; 5 μM, control siRNA-transfected HCT116 cells): blocked the cell-cycle progression
- G0/G1 arrest (HCT116 p53^wt cells [3]; 5 or 10 μM, 48 hr): mild, but significant G0/G1 arrest
- cyclin D1 expression (MCF-7 cells): significant decrease of cyclin D1 expression
- cyclin D1 expression (U-2 OS cells): significant decrease of cyclin D1 expression
- level of CCND1 mRNA [4]: did not change
- mean nuclei number per picture (HCT116 p53^wt cells [5]; first (lowest) of increasing concentrations): 3957
- mean nuclei number per picture (HCT116 p53^wt cells [5]; second of increasing concentrations): 4229
- mean nuclei number per picture (HCT116 p53^wt cells [5]; third (highest) of increasing concentrations): 2783
- phosphorylation of Akt (S473) (HCT116 p53^wt cells [6]; 5 μM, 24–32 hr): increase of the phosphorylation
- phosphorylation of GSK-3β (S9) (HCT116 p53^wt cells [6]; 5 μM, 24–32 hr): increase of the phosphorylation
- expression of p27 (HCT116 p53^wt cells [6]; 5 or 20 μM, 48 hr, HCT116 cells (Figures 2A and S3A)): not altered
- expression of proteins encoded by p53-target genes (MDM2 and p21) and of p53 (HCT116 p53^wt cells [6]; 24 or 48 hr): did not induce
- expression level of Aurora A (HCT116 cells [7]): significant decrease
- expression level of cyclin A1 (HCT116 cells [7]): significant decrease
